{"source": "patent US11980631B2", "about": "“β-lactamase inhibitors” (priority 2017, dated 2024)", "key": {"S. maltophilia": {"test_system": "S. maltophilia", "test": "microbe, parasite or virus in culture", "format": "cell-based, Stenotrophomonas maltophilia", "conditions": "for MIC of the β-lactam alone (−): no inhibitor", "protocol": "S. maltophilia clinical isolates were K279a, a well characterised isolate from Bristol, UK, or were obtained from the SENTRY antimicrobial resistance survey, as previously reported. […] All growth media were from Oxoid. Chemicals were from Sigma, unless otherwise stated.\nSusceptibility to β-lactams in bacterial isolates was determined using the CLSI microtitre minimum inhibitory concentration (MIC) methodology with Muller-Hinton Broth using 96 well plates (Corning, Costar). The MIC was determined as the lowest concentration of β-lactam required to entirely suppress growth. Inhibitor concentrations were kept constant at 2 mg/L or 10 mg/L in all assays. Interpretation of susceptibility/resistance was by reference to CLSI clinical breakpoints for S. maltophilia (ceftazidime) and for Pseudomonas aeruginosa (for aztreonam and meropenem, since no S. maltophilia breakpoints are available)."}, "[1]": {"test_system": "L1 β-lactamase production in S. maltophilia K279a", "test": "L1 β-lactamase induction by β-lactamase inhibitors (meropenem hydrolysis in cell extracts)", "format": "cell-based", "conditions": "50 μg.mL^−1 inducer", "protocol": "L1 activity was measured from the cell extracts in a 96-well plate reader by determining meropenem hydrolysis (100 μM) at λ=300 nm. Protein concentration was determined by using BioRad protein assay dye reagent. Specific activity was calculated by using the extinction coefficient of 9600 AU/M/cm and a pathlength correction for the microplate ([…]). Data presented are means +/−SEM, n=3.\nCultures were grown overnight using nutrient broth and used to inoculate (1:100 dilution) 10 ml nutrient broth cultures in sealed 30 ml universal bottles. Cultures were incubated for 2 h with shaking at 37° C. before test inducers were added, or not, and culture was continued for 2 h. Cells were pelleted by centrifugation (4,000×g, 10 min) and pellets treated with 100 μL of BugBuster (Ambion), pipetting up and down a few times before rocking for 10 min at room temperature. […] Protein concentration was determined using the BioRad protein assay reagent concentrate according to the manufacturer's instructions. L1 β-lactamase activity was determined using an Omega Fluostar (BMG Biotech) using meropenem as substrate in half-area 96 well UV-translucent plates (Greiner UV-Star. Bio-one) with 200 μl of 100 μM meropenem solution in assay buffer (60 mM Na2HPO4.7H2O pH 7.0, 40 mM NaH2PO4.H2O, 10 mM KCI, 1 mM MgSO4.7H2O, 100 μM ZnCl2) plus 10 μL of cell extract. […]"}, "L2": {"molecular_target": "L2 (Stenotrophomonas maltophilia (Pseudomonas maltophilia) (Xanthomonas maltophilia), UniProt P96465)", "sequence (P96465 36-303 limits assumed)": "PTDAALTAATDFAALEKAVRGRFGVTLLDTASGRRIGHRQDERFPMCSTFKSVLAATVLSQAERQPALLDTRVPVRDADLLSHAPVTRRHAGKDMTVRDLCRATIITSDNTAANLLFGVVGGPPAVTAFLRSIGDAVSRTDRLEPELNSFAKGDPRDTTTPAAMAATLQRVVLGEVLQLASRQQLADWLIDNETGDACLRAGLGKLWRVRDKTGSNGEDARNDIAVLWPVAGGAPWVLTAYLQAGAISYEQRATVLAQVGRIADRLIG", "test": "Inhibition of purified L2, fluorogenic substrate FC5 as reporter", "conditions": "IC50, purified L2, FC5 substrate", "description": "Steady state kinetic data were analysed by curve fitting to the Michaeilis-Menten equation using Prism software."}, "BlaC": {"molecular_target": "BlaC (Mycobacterium tuberculosis (strain ATCC 25618 / H37Rv), UniProt P9WKD3)", "sequence (P9WKD3 35-307 limits assumed)": "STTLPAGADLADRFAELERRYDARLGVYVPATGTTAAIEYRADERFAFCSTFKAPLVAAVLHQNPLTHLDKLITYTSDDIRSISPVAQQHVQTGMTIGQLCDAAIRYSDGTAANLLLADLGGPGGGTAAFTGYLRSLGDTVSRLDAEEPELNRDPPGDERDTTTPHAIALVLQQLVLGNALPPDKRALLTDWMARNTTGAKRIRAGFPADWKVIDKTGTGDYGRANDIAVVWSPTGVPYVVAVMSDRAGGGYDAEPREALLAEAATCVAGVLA", "test": "BlaC inhibition assay (FC5 hydrolysis, fluorescence)", "format": "biochemical", "protocol": "Recombinant BlaC, with an N-terminal His-tag, was produced in E. coli BL21(DE3) cells using auto-induction medium supplemented with 50 μg mL^−1 ampicillin. Cells were grown for four hours at 37° C. before cooling to 18° C. and continuing growth overnight. Cells were harvested by centrifugation (10 min, 10000 g).\nFC5 was stored as a 2.5 mM solution in assay buffer supplemented with 10% (v/v) DMSO. Fluorescence measurements were made using a PHERAstar multi-mode plate reader (BMG Labtech). All assays were carried out at 25° C. Fluorescence assays were carried out using black 96 well format half area clear® plates (Greiner Bio-One) with a final assay volume of 100 μL. FC5 hydrolysis was followed by fluorescence (λex=380 nm, λem=460 nm) corresponding to the release of the umbelliferone fluorophore. The optimum concentration of enzyme for steady-state measurements was determined by examining the rate of substrate hydrolysis at varied concentrations of enzyme, with the concentration at which the initial rate remained constant for 5-10 min being selected as an appropriate enzyme concentration. Initial rates of substrate hydrolysis were determined at varying substrate concentrations. Steady-state kinetic parameters were determined by fitting of initial rates to the Michaelis-Menten equation using GraphPad Prism 5 software.\nInhibition assays were performed by monitoring the initial rate of FC5 hydrolysis via fluorescence at a range of inhibitor concentrations. Inhibitors were stored either as solids or as 100 mM stock solutions in DMSO, these were diluted to appropriate concentrations in the assay buffer. Typically inhibition assays were carried out using black 384 well format pclear® plates (Griener Bio-One) with a final assay volume of 25 μL. Enzyme concentrations were chosen to give a linear rate of FC5 hydrolysis over the first 5 min of the assay time with an FC5 concentration of 5 μM. Components were added in the following order and volumes:\nThe enzyme was incubated with the inhibitor for 10 min prior to initiation of the reaction by the addition of the substrate. The residual activities were calculated using the following formula:\n[formula] IC50 values were calculated by fitting of residual residual activity curves using GraphPad Prism 5 software."}, "L1 (class B3 MBL)": {"molecular_target": "L1 (class B3 MBL) (Stenotrophomonas maltophilia (Pseudomonas maltophilia) (Xanthomonas maltophilia), UniProt P52700)", "sequence (P52700 whole entry, looked up)": "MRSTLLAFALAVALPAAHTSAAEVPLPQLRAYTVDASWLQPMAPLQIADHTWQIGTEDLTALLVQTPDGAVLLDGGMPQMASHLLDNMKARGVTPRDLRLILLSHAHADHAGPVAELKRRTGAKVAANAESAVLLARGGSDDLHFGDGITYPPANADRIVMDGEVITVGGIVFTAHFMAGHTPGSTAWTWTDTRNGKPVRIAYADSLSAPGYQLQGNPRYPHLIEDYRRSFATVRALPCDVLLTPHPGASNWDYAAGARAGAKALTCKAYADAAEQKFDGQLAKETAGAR", "test": "Steady-state hydrolysis of β-lactams by purified L1", "format": "biochemical, S. maltophilia", "excerpt": "(§1) As a prelude to investigation the effects of β-lactamase inhibitors, the hydrolysis of a range of candidate β-lactams in vitro by purified L1 (class B3 MBL) and L2 (class A ESBL) under steady state conditions were investigated."}, "L2 (class A ESBL)": {"molecular_target": "L2 (class A ESBL) (Stenotrophomonas maltophilia (Pseudomonas maltophilia) (Xanthomonas maltophilia), UniProt P96465)", "sequence (P96465 36-303 limits assumed)": "as the sequence (P96465 36-303 limits assumed) above", "test": "Steady-state hydrolysis of β-lactams by purified L2", "format": "biochemical, S. maltophilia", "excerpt": "as §1"}}, "data": [{"smiles": "NC(=O)[C@@H]1CC[C@@H]2CN1C(=O)N2OS(=O)(=O)O", "note": "[Avibactam]", "values": [{"measurement": "MIC of aztreonam in the presence of the β-lactamase inhibitor", "setting": "S. maltophilia; CI-20, inhibitor at 2 mg/L", "value": 2, "unit": "µg/mL"}, {"measurement": "MIC of ceftazidime in the presence of the β-lactamase inhibitor", "setting": "S. maltophilia; CI-20, inhibitor at 2 mg/L", "value": 4, "unit": "µg/mL"}, {"measurement": "MIC of meropenem in the presence of the β-lactamase inhibitor", "setting": "S. maltophilia; CI-20, inhibitor at 2 mg/L", "value": 64, "unit": "µg/mL"}, {"measurement": "MIC of aztreonam in the presence of the β-lactamase inhibitor", "setting": "S. maltophilia; CI-29, inhibitor at 2 mg/L", "value": 1, "unit": "µg/mL"}, {"measurement": "MIC of ceftazidime in the presence of the β-lactamase inhibitor", "setting": "S. maltophilia; CI-29, inhibitor at 2 mg/L", "value": 1, "unit": "µg/mL"}, {"measurement": "MIC of meropenem in the presence of the β-lactamase inhibitor", "setting": "S. maltophilia; CI-29, inhibitor at 2 mg/L", "value": 32, "unit": "µg/mL"}, {"measurement": "MIC of aztreonam in the presence of the β-lactamase inhibitor", "setting": "S. maltophilia; CI-31, inhibitor at 2 mg/L", "value": "≤ 4", "unit": "µg/mL"}, {"measurement": "MIC of ceftazidime in the presence of the β-lactamase inhibitor", "setting": "S. maltophilia; CI-31, inhibitor at 2 mg/L", "value": 128, "unit": "µg/mL"}, {"measurement": "MIC of meropenem in the presence of the β-lactamase inhibitor", "setting": "S. maltophilia; CI-31, inhibitor at 2 mg/L", "value": 256, "unit": "µg/mL"}, {"measurement": "MIC of aztreonam in the presence of the β-lactamase inhibitor", "setting": "S. maltophilia; CI-31, inhibitor at 2 mg/L, listed as AVI", "value": 4, "unit": "µg/mL"}, {"measurement": "MIC of aztreonam in the presence of the β-lactamase inhibitor", "setting": "S. maltophilia; K279a, inhibitor at 2 mg/L", "value": 1, "unit": "µg/mL"}, {"measurement": "MIC of ceftazidime in the presence of the β-lactamase inhibitor", "setting": "S. maltophilia; K279a, inhibitor at 2 mg/L", "value": 1, "unit": "µg/mL"}, {"measurement": "MIC of meropenem in the presence of the β-lactamase inhibitor", "setting": "S. maltophilia; K279a, inhibitor at 2 mg/L", "value": 16, "unit": "µg/mL"}, {"measurement": "MIC of aztreonam in the presence of the β-lactamase inhibitor", "setting": "S. maltophilia; K AMI 32, inhibitor at 2 mg/L", "value": 0.5, "unit": "µg/mL"}, {"measurement": "MIC of ceftazidime in the presence of the β-lactamase inhibitor", "setting": "S. maltophilia; K AMI 32, inhibitor at 2 mg/L", "value": 0.5, "unit": "µg/mL"}, {"measurement": "MIC of meropenem in the presence of the β-lactamase inhibitor", "setting": "S. maltophilia; K AMI 32, inhibitor at 2 mg/L", "value": 16, "unit": "µg/mL"}, {"measurement": "MIC of aztreonam in the presence of the β-lactamase inhibitor", "setting": "S. maltophilia; K CAZ 10, inhibitor at 2 mg/L", "value": 1, "unit": "µg/mL"}, {"measurement": "MIC of ceftazidime in the presence of the β-lactamase inhibitor", "setting": "S. maltophilia; K CAZ 10, inhibitor at 2 mg/L", "value": 8, "unit": "µg/mL"}, {"measurement": "MIC of meropenem in the presence of the β-lactamase inhibitor", "setting": "S. maltophilia; K CAZ 10, inhibitor at 2 mg/L", "value": 64, "unit": "µg/mL"}, {"measurement": "MIC of aztreonam in the presence of the β-lactamase inhibitor", "setting": "S. maltophilia; K MOX 8, inhibitor at 2 mg/L", "value": 0.5, "unit": "µg/mL"}, {"measurement": "MIC of ceftazidime in the presence of the β-lactamase inhibitor", "setting": "S. maltophilia; K MOX 8, inhibitor at 2 mg/L", "value": 0.5, "unit": "µg/mL"}, {"measurement": "MIC of meropenem in the presence of the β-lactamase inhibitor", "setting": "S. maltophilia; K MOX 8, inhibitor at 2 mg/L", "value": 16, "unit": "µg/mL"}, {"measurement": "ability to potentiate β-lactams / reverse resistance (in words)", "setting": "S. maltophilia; inhibitor at 2 mg/L, β-lactam and strain named in the value", "value": "reduce ceftazidime MICs against K279a"}, {"measurement": "induction of L1 production (in words)", "setting": "[1]", "value": "neither avibactam nor 2 induces L1 to any measurable extent"}, {"measurement": "IC50", "setting": "L2", "value": 0.0144, "unit": "µM"}]}, {"smiles": "C[C@@H](O)[C@H]1C(=O)N2C(C(=O)O)=C([C@H]3CCCO3)S[C@H]12", "note": "[Faropenem]", "values": [{"measurement": "IC50", "setting": "BlaC; pre-incubation time 0 min", "value": 3.72, "unit": "µM"}, {"measurement": "IC50", "setting": "BlaC; pre-incubation time 10 min", "value": 2.51, "unit": "µM"}, {"measurement": "IC50", "setting": "BlaC; pre-incubation time 60 min", "value": 3.55, "unit": "µM"}]}, {"smiles": "C[C@@H](O)[C@H]1C(=O)N2C(C(=O)O)=C(S[C@@H]3CN[C@H](C(=O)N(C)C)C3)[C@H](C)[C@H]12", "note": "[Meropenem]", "values": [{"measurement": "MIC of the β-lactam alone (−)", "setting": "S. maltophilia; CI-20", "value": 64, "unit": "µg/mL"}, {"measurement": "MIC of the β-lactam alone (−)", "setting": "S. maltophilia; CI-29", "value": 32, "unit": "µg/mL"}, {"measurement": "MIC of the β-lactam alone (−)", "setting": "S. maltophilia; CI-31", "value": 256, "unit": "µg/mL"}, {"measurement": "MIC of the β-lactam alone (−)", "setting": "S. maltophilia; K279a", "value": 8, "unit": "µg/mL"}, {"measurement": "MIC of the β-lactam alone (−)", "setting": "S. maltophilia; K AMI 32", "value": 4, "unit": "µg/mL"}, {"measurement": "MIC of the β-lactam alone (−)", "setting": "S. maltophilia; K CAZ 10", "value": 64, "unit": "µg/mL"}, {"measurement": "MIC of the β-lactam alone (−)", "setting": "S. maltophilia; K MOX 8", "value": 4, "unit": "µg/mL"}, {"measurement": "pIC50", "setting": "BlaC; pre-incubation time 0 min", "value": "5.72 ± 0.06"}, {"measurement": "pIC50", "setting": "BlaC; pre-incubation time 10 min", "value": "6.41 ± 0.05"}, {"measurement": "pIC50", "setting": "BlaC; pre-incubation time 60 min", "value": "7.16 ± 0.03"}, {"measurement": "Km", "setting": "L1 (class B3 MBL)", "value": 105, "unit": "µM"}, {"measurement": "kcat", "setting": "L1 (class B3 MBL)", "value": 23.8, "unit": "s⁻¹"}, {"measurement": "kcat/KM", "setting": "L1 (class B3 MBL)", "value": "227 (μM^−1 · s^−1) × 10^−3"}, {"measurement": "Km", "setting": "L2 (class A ESBL)", "value": 28.8, "unit": "µM"}, {"measurement": "kcat", "setting": "L2 (class A ESBL)", "value": 0.028, "unit": "s⁻¹"}, {"measurement": "kcat/KM", "setting": "L2 (class A ESBL)", "value": "0.97 (μM^−1 · s^−1) × 10^−3"}]}, {"smiles": "C[C@]1(Cn2ccnn2)[C@H](C(=O)O)N2C(=O)C[C@H]2S1(=O)=O", "note": "[Tazobactam]", "values": [{"measurement": "IC50", "setting": "BlaC; pre-incubation time 0 min", "value": 6.46, "unit": "µM"}, {"measurement": "IC50", "setting": "BlaC; pre-incubation time 10 min", "value": 2.75, "unit": "µM"}, {"measurement": "IC50", "setting": "BlaC; pre-incubation time 60 min", "value": 3.55, "unit": "µM"}]}]}
